{"source": "the NIST ThermoML archive (doi:10.1016/j.jct.2016.10.040)", "key": {"[1]": {"conditions": "Crystal; DTA"}, "[2]": {"assay": "Molar enthalpy of transition or fusion", "conditions": "Crystal; DSC"}}, "note": "± gives the expanded uncertainty stated by the source."}
{"compound": "O=Cc1cccc([N+](=O)[O-])c1", "note": "[3-nitrobenzaldehyde]", "values": [{"measurement": "Normal melting temperature", "setting": "[1]", "value": "55.07 ± 1.1", "unit": "°C"}, {"measurement": "Molar enthalpy of transition or fusion", "setting": "[2]", "value": "4.76 ± 0.217", "unit": "kcal/mol"}]}
